Laboratory results as given in ChEMBL document CHEMBL5260815, “Profiling of in vitro activities of urea-based inhibitors against cysteine synthases from Mycobacterium tuberculosis” (Bioorg Med Chem Lett, 2017).

Legend:
S-sulfocysteine synthase [1] = target: T1, S-sulfocysteine synthase (Mycobacterium tuberculosis (strain ATCC 25618 / H37Rv), UniProt Q79FV4); test: Inhibition of hexahistidine-tagged recombinant Mycobacterium tuberculosis CysK2 expressed in Escherichia coli BL21(DE3) assessed as amount of S-sulfocysteine produced using […] as substrate incubated for 30 mins by acid-ninhydrin based spectrophotometric assay
T1 sequence (Q79FV4 whole entry): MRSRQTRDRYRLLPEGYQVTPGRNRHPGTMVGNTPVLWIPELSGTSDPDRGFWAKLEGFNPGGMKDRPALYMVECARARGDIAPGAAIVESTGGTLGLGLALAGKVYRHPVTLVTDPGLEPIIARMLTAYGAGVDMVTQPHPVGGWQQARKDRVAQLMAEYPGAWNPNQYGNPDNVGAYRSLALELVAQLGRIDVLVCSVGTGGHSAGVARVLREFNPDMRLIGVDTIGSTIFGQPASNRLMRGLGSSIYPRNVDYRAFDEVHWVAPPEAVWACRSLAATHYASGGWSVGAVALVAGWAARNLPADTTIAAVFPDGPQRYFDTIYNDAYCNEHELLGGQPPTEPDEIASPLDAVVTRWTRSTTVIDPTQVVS

S-sulfocysteine synthase [2] = target: T1, S-sulfocysteine synthase; test: Inhibition of hexahistidine-tagged recombinant Mycobacterium tuberculosis CysK2 expressed in Escherichia coli BL21(DE3) assessed as dissociation constant using PLP as substrate incubated for 5 mins by fluorescence analysis
[3] = target: T2, O-acetylserine sulfhydrylase (Mycobacterium tuberculosis, UniProt P9WP55); test: Inhibition of hexahistidine-tagged recombinant Mycobacterium tuberculosis CysK1 expressed in Escherichia coli BL21(DE3) assessed as amount of cysteine produced using O-acetyl-L-serine as substrate incubated for 12 mins by acid-ninhydrin based spectrophotometric assay
[4] = target: T2, O-acetylserine sulfhydrylase; test: Inhibition of hexahistidine-tagged recombinant Mycobacterium tuberculosis CysK1 expressed in Escherichia coli BL21(DE3) assessed as dissociation constant using PLP as substrate incubated for 5 mins by fluorescence analysis
[5] = target: O-phosphoserine sulfhydrylase (Mycobacterium tuberculosis (strain ATCC 25618 / H37Rv), UniProt P9WP53); test: Inhibition of Mycobacterium tuberculosis CysM
S-sulfocysteine synthase [6] = target: T1, S-sulfocysteine synthase; test: Inhibition of hexahistidine-tagged recombinant Mycobacterium tuberculosis CysK2 expressed in Escherichia coli BL21(DE3) assessed as inhibition constant using […] as substrate by Lineweaver-Burk plot analysis

Sequence of O-phosphoserine sulfhydrylase (P9WP53 whole entry): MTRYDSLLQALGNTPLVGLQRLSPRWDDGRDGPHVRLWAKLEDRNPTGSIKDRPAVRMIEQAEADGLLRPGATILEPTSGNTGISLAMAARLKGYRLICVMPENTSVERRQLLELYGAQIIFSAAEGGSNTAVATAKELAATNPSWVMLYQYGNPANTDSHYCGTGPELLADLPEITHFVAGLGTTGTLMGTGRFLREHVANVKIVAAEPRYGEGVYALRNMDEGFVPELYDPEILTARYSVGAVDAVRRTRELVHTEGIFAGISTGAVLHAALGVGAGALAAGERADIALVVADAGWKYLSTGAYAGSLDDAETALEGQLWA

Structure (SMILES) | IC50 (S-sulfocysteine synthase [1]) [µM] | Kd (S-sulfocysteine synthase [2]) [µM] | IC50 [3] [µM] | Kd [4] [µM] | IC50 [5] [µM] | Ki (S-sulfocysteine synthase [6]) [µM]
O=C(Nc1ccc(Cl)cc1)Nc1cccc(C(=O)O)c1 | 13 | 16.9 | – | – | – | –
Cc1ccc(NC(=O)Nc2cccc(C(=O)O)c2)cc1 | – | 148 | – | – | – | –
O=C(Nc1cccc(-c2ccccc2)c1)Nc1ccc(O)c(C(=O)O)c1 | 10.3 | 102 | 9.3 | – | – | –
O=C(Nc1cccc(-c2nnn[nH]2)c1)Nc1ccc(Cl)c(Cl)c1 | – | 80.3 | – | – | – | –
O=C(Nc1cccc(C(=O)O)c1)Nc1ccc(Cl)c(Cl)c1 | 10.1 | 48.7 | 11.2 | 241 | 0.48 | –
O=C(Nc1cccc(-c2ccccc2)c1)Nc1ccc(C(=O)O)c(O)c1 | 26.9 | – | 21.2 | – | – | –
O=C(Nc1ccc(Br)cc1)Nc1cccc(C(=O)O)c1 | 27.6 | 17.7 | – | – | – | –
O=C(Nc1ccc(Cl)c(Cl)c1)Nc1ccc(O)c(C(=O)O)c1 | 29.9 | – | 2.5 | 75.7 | – | –
O=C(Nc1cccc(C(=O)O)c1)Nc1cccc(-c2ccccc2)c1 | 6.6 | 14.9 | 4.9 | 96.8 | – | 1.1
COc1ccc(OC)c(NC(=O)Nc2ccccc2C(=O)O)c1 | – | – | – | 59.9 | – | –
O=C(Nc1ccc(Br)cc1)Nc1ccc(C(=O)O)c(O)c1 | – | – | 29.4 | – | – | –
O=C(O)c1cccc(NS(=O)(=O)c2cccc(-c3ccc(Cl)c(Cl)c3)c2)c1 | – | – | – | 110 | – | –
